In patent publication US20060276464A1, “Diarylsulfone sulfonamides and use thereof” (Wyeth, priority 2005, published 2006):
pEC50: −log10 of the molar value. Where two headings read alike, the source gives them in different places.

Target: T1, SFRP-1 (Homo sapiens, UniProt Q8N474)
T1 sequence (Q8N474 32-314): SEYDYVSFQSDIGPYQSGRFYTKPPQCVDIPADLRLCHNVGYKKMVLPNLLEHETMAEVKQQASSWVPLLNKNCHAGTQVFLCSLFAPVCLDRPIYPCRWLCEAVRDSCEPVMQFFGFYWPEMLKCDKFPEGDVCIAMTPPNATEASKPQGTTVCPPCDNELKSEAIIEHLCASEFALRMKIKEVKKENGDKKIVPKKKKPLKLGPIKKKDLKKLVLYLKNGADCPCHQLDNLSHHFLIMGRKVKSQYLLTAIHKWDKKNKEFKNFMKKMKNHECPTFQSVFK
Test: Cell-based assay for in vitro measurement of SFRP-1/SARP2 antagonist activity (U2OS cells co-transfected with 16x TCF-tk-Luciferase reporter, Wnt and hSFRP-1);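 note: U2OS cells co-transfected with a TCF-tk luciferase reporter, a Wnt vector, hSFRP-1 or empty vector and CMV-βgal, luciferase luminescence read in cell lysates alongside βgal activity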
Settings: for fold induction at 15 µM / fold induction at 30 µM / fold induction at 10 µM / fold induction at 20 µM: U2OS; for fold induction at 10 µM: read-out: Fold Induction with SFRP-1, U2OS cells, single dose 10 μM, luciferase reporter, fold induction over SFRP-1 control

[1] = read-out: Fold Induction with SFRP-1, Conc 15 μM, with SFRP-1, fold induction over SFRP-1 control, single dose
[2] = read-out: Fold Induction without SFRP-1, Conc 15 μM, without SFRP-1, single dose
[3] = read-out: Fold Induction with SFRP-1, Conc 15 μM, single dose, luciferase reporter, fold induction over SFRP-1 control, cells with SFRP-1
[4] = read-out: Fold Induction without SFRP-1, Conc 15 μM, single dose, luciferase reporter, cells without SFRP-1 (specificity control)
[5] = read-out: Fold Induction with SFRP-1, Conc 30 μM, with SFRP-1, fold induction over SFRP-1 control, single dose
[6] = read-out: Fold Induction without SFRP-1, Conc 30 μM, without SFRP-1, single dose
[7] = read-out: Fold Induction with SFRP-1, Conc 20 μM, with SFRP-1, fold induction over SFRP-1 control, single dose
[8] = read-out: Fold Induction without SFRP-1, Conc 20 μM, without SFRP-1, single dose

Row | Compound | fold induction at 15 µM [1] | fold induction at 15 µM [2] | further results
1 | Cc1ccc(S(=O)(=O)c2ccc3ccccc3c2)cc1S(=O)(=O)NCCCn1ccnc1 [Example 339, N-[3-(1H-imidazol-1-yl)propyl]-2-methyl-5-(2-naphthylsulfonyl)benzenesulfonamide] | 2.6 | 1.1 | –
2 | Cc1c(S(=O)(=O)NCCN2CCOCC2)cccc1S(=O)(=O)c1ccccc1 [Example 495, 2-methyl-N-(2-morpholin-4-ylethyl)-3-(phenylsulfonyl)benzenesulfonamide] | – | – | fold induction at 15 µM [3]: 1.1; fold induction at 15 µM [4]: 1.3
3 | Cc1ccc(S(=O)(=O)c2ccccc2)cc1S(=O)(=O)NC1CCN(C(=O)Cc2ccccc2)CC1 [Example 470, 2-methyl-N-[1-(phenylacetyl)piperidin-4-yl]-5-(phenylsulfonyl)benzenesulfonamide] | 1.6 | 1.1 | –
4 | CCc1ccc(S(=O)(=O)c2ccccc2)cc1S(=O)(=O)N1CCN(CCCN2CCOCC2)CC1 [Example 289, 4-[3-(4-{[2-ethyl-5-(phenylsulfonyl)phenyl]sulfonyl}piperazin-1-yl)propyl]morpholine] | 2.3 | 1.1 | –
5 | Cc1ccc(S(=O)(=O)c2ccc(NC3CCOCC3)cc2)cc1S(=O)(=O)NCCCn1ccnc1 [Example 366, N-[3-(1H-imidazol-1-yl)propyl]-2-methyl-5-{[4-(tetrahydro-2H-pyran-4-ylamino)phenyl]sulfonyl}benzenesulfonamide] | 2.4 | 1 | –
6 | Cc1ccc(S(=O)(=O)c2ccc(C)c(S(=O)(=O)NCCc3ccccc3)c2)cc1 [Example 116, 2-methyl-5-[(4-methylphenyl)sulfonyl]-N-(2-phenylethyl)benzenesulfonamide] | – | – | fold induction at 30 µM [5]: 0.9; fold induction at 30 µM [6]: 0.4
7 | CCOc1cc(CCNS(=O)(=O)c2cc(S(=O)(=O)c3ccccc3)ccc2CC)ccc1OC [Example 148, N-[2-(3-ethoxy-4-methoxyphenyl)ethyl]-2-ethyl-5-(phenylsulfonyl)benzenesulfonamide] | 2.8 | 1.1 | –
8 | CC(C)c1ccc(S(=O)(=O)c2ccc(F)cc2)cc1S(=O)(=O)NCCO [Example 582, 5-[(4-fluorophenyl)sulfonyl]-N-(2-hydroxyethyl)-2-isopropylbenzenesulfonamide] | – | – | fold induction at 15 µM [3]: 2.6; fold induction at 15 µM [4]: 1
9 | Cc1ccc(S(=O)(=O)c2ccccc2)cc1S(=O)(=O)NCC(O)c1ccccc1 (stereo not drawn) [Example 386, N-(2-hydroxy-2-phenylethyl)-2-methyl-5-(phenylsulfonyl)benzenesulfonamide] | 1.8 | 1 | –
10 | CC(C)c1ccc(S(=O)(=O)c2ccc3c(c2)C(C)(C)OC(=O)N3)cc1S(=O)(=O)NCCc1ccccn1 [Example 515, 5-[(4,4-dimethyl-2-oxo-1,4-dihydro-2H-3,1-benzoxazin-6-yl)sulfonyl]-2-isopropyl-N-(2-pyridin-2-ylethyl)benzenesulfonamide] | – | – | fold induction at 15 µM [3]: 1.8; fold induction at 15 µM [4]: 1
11 | COc1cccc(CCNS(=O)(=O)c2cc(S(=O)(=O)c3ccc(C)cc3)ccc2C)c1 [Example 119, N-[2-(3-methoxyphenyl)ethyl]-2-methyl-5-[(4-methylphenyl)sulfonyl]benzenesulfonamide] | – | – | fold induction at 30 µM [5]: 0.2; fold induction at 30 µM [6]: 0.3
12 | Cc1ccc(S(=O)(=O)c2ccccn2)cc1S(=O)(=O)NCCCn1ccnc1 [Example 378, N-[3-(1H-imidazol-1-yl)propyl]-2-methyl-5-(pyridin-2-ylsulfonyl)benzenesulfonamide] | 1.7 | 1.1 | –
13 | COc1ccccc1CCNS(=O)(=O)c1cc(S(=O)(=O)c2ccc(F)cc2)ccc1C [Example 4, 5-[(4-fluorophenyl)sulfonyl]-N-[2-(2-methoxyphenyl)ethyl]-2-methylbenzenesulfonamide] | – | – | fold induction at 30 µM [5]: 0.1; fold induction at 30 µM [6]: 0.1
14 | Cc1ccc(S(=O)(=O)c2ccc(C)c(S(=O)(=O)N(C)CCc3ccccc3F)c2)cc1 [Example 275, N-[2-(2-fluorophenyl)ethyl]-N,2-dimethyl-5-[(4-methylphenyl)sulfonyl]benzenesulfonamide] | 0.8 | 0.8 | –
15 | COCCCNS(=O)(=O)c1cccc(S(=O)(=O)c2ccccc2)c1 [Example 195, N-(3-methoxypropyl)-3-(phenylsulfonyl)benzenesulfonamide] | – | – | fold induction at 30 µM [5]: 1.2; fold induction at 30 µM [6]: 0.9
16 | Cc1ccc(S(=O)(=O)c2ccc(C(C)(O)Cc3ccccc3)cc2)cc1S(=O)(=O)NCCc1ccccn1 (stereo not drawn) [Example 408, 5-{[4-(1-hydroxy-1-methyl-2-phenylethyl)phenyl]sulfonyl}-2-methyl-N-(2-pyridin-2-ylethyl)benzenesulfonamide] | 1.2 | 1 | –
17 | CCc1ccc(S(=O)(=O)c2ccccc2)cc1S(=O)(=O)NCCc1c[nH]cn1 [Example 225, 2-ethyl-N-[2-(1H-imidazol-4-yl)ethyl]-5-(phenylsulfonyl)benzenesulfonamide] | 3.1 | 0.9 | –
18 | Cc1ccc(S(=O)(=O)c2ccc(F)cc2)cc1S(=O)(=O)NCCc1ccccn1 [Example 162, 5-[(4-fluorophenyl)sulfonyl]-2-methyl-N-(2-pyridin-2-ylethyl)benzenesulfonamide] | 2.7 | 0.8 | Fold Induction with SFRP-1 (Conc 15 μM, with SFRP-1, fold induction over SFRP-1 control, single dose): 2.5 fold; Fold Induction without SFRP-1 (Conc 15 μM, without SFRP-1, single dose): 1 fold
19 | CC(C)(C)OC(=O)N1CCCC1CCNS(=O)(=O)c1cc(S(=O)(=O)c2ccccc2)ccc1C(F)(F)F (stereo not drawn) [Example 908, tert-butyl 2-[2-({[5-(phenylsulfonyl)-2-(trifluoromethyl)phenyl]sulfonyl}amino)ethyl]pyrrolidine-1-carboxylate] | – | – | fold induction at 10 µM: 1.1
20 | Cc1ccc(S(=O)(=O)c2ccccc2)cc1S(=O)(=O)NC1CCNCC1 [Example 447, 2-methyl-5-(phenylsulfonyl)-N-piperidin-4-ylbenzenesulfonamide] | 3 | 1.1 | –
21 | CCc1ccc(S(=O)(=O)c2ccc(F)cc2)cc1S(=O)(=O)NCC(O)c1ccccc1 (stereo not drawn) [Example 388, 2-ethyl-5-[(4-fluorophenyl)sulfonyl]-N-(2-hydroxy-2-phenylethyl)benzenesulfonamide] | 2.2 | 1.1 | –
22 | COC(=O)CCNS(=O)(=O)c1cccc(S(=O)(=O)c2ccccc2)c1 [Example 182, methyl N-{[3-(phenylsulfonyl)phenyl]sulfonyl}-beta-alaninate] | – | – | fold induction at 30 µM [5]: 1; fold induction at 30 µM [6]: 1
23 | Cc1ccc(S(=O)(=O)c2ccc(C#N)cc2)cc1S(=O)(=O)NC1CCOCC1 [Example 376, 5-[(4-cyanophenyl)sulfonyl]-2-methyl-N-(tetrahydro-2H-pyran-4-yl)benzenesulfonamide] | 1.5 | 1.1 | –
24 | Cc1ccc(S(=O)(=O)c2ccc(F)cc2)cc1S(=O)(=O)NCCc1ccccc1Cl [Example 3, N-[2-(2-chlorophenyl)ethyl]-5-[(4-fluorophenyl)sulfonyl]-2-methylbenzenesulfonamide] | – | – | fold induction at 30 µM [5]: 1.1; fold induction at 30 µM [6]: 0.4
25 | O=C(NCCNS(=O)(=O)c1cc(S(=O)(=O)c2ccccc2)ccc1C(F)(F)F)c1ccc(Br)cc1 [Example 779, 4-Bromo-N-[2-({[5-(phenylsulfonyl)-2-(trifluoromethyl)phenyl]sulfonyl}amino)ethyl]benzamide] | – | – | fold induction at 10 µM: 1
26 | Cc1ccc(S(=O)(=O)c2ccc(Cl)cc2)cc1S(=O)(=O)NCCc1ccccn1 [Example 291, 5-[(4-chlorophenyl)sulfonyl]-2-methyl-N-(2-pyridin-2-ylethyl)benzenesulfonamide] | 1.7 | 0.9 | –
27 | O=S(=O)(NC1Cc2ccccc2C1)c1cccc(S(=O)(=O)c2ccccc2)c1 [Example 258, N-2,3-dihydro-1H-inden-2-yl-3-(phenylsulfonyl)benzenesulfonamide] | – | – | fold induction at 20 µM [7]: 1.2; fold induction at 20 µM [8]: 1
28 | Cc1ccc(S(=O)(=O)c2ccc(F)cc2)cc1S(=O)(=O)NC1Cc2ccccc2C1 [Example 249, N-2,3-dihydro-1H-inden-2-yl-5-[(4-fluorophenyl)sulfonyl]-2-methylbenzenesulfonamide] | – | – | fold induction at 20 µM [7]: 1.9; fold induction at 20 µM [8]: 0.8
29 | Cc1ccc(S(=O)(=O)c2ccccc2)cc1S(=O)(=O)NC1CCN(C(=O)Oc2ccc(F)cc2)CC1 [Example 500, 4-fluorophenyl 4-({[2-methyl-5-(phenylsulfonyl)phenyl]sulfonyl}amino)piperidine-1-carboxylate] | – | – | fold induction at 15 µM [3]: 1.6; fold induction at 15 µM [4]: 0.8
30 | Cc1ccc(S(=O)(=O)c2ccccc2)cc1S(=O)(=O)NCCC(=O)NC(C)(C)C [Example 666, N-(tert-butyl)-N^3-{[2-methyl-5-(phenylsulfonyl)phenyl]sulfonyl}-β-alaninamide] | – | – | pEC50: 4.57; fold induction at 10 µM: 1.5
